What was measured:
Serotonin 5-HT2B = Serotonin 5-HT2B (Homo sapiens, UniProt P41595); assay: Eurofins Panlabs radioligand binding panel, serotonin 5-HT2B; details: 10 uM
cortical neurons = assay: Neurite outgrowth in embryonic rat cortical neuron cultures; format: cell-based; details: any tested concentration (0.001 to 10000 nM), 3 days, vs vehicle
From the text: Female Wistar rats of 17 days gestation were killed by cervical dislocation and the fetuses (typically 6 to 8 in number) were removed from the uteri. Fetal brains were placed in ice-cold medium of Leibovitz (L15, Gibco, France). Cortex was dissected and meninges were carefully removed. The cortical neurons were dissociated by trypsinization (trypsin-EDTA, Gibco) in the presence of DNAse I (Roche, France). The reaction was stopped by addition of Dulbecco's Modified Eagle Medium (DMEM; Gibco) with 10% of fetal bovine serum (FBS; Gibco). The suspension was triturated with a 10-ml pipette and a 21-gauge needle syringe and centrifuged. The pellet of dissociated cells was resuspended in a medium consisting of Neurobasal (Gibco) supplemented with 2% B27 supplement (Gibco), 0.5 mM L-Glutamine (Gibco), and an antibiotic-antimycotic mixture. Viable cells were counted in a Neubauer cytometer and cells were seeded in 96-well plates (Costar) precoated with poly-L-lysine at 10,000 cells/well. […] Stock solutions were prepared in sterile water at 10 mM and stored at −20° C. until used. Further dilutions were prepared in culture in the medium on the day of the treatment. 0.1% Sterile water was present in all tested conditions.
The experimental protocol was performed in two independent cultures (i.e., from two different pregnant rats). For each culture, each condition was tested in sextuplet (6 wells per condition per culture for a total of 12 wells per condition). […] After three days of plating and compound treatment (Day 3), cultures were fixed with paraformaldehyde in phosphate buffered saline at 4° C. (PBS, 4%, Sigma). All subsequent steps were performed at room temperature. Cells were successively permeabilized for 30 minutes using 0.1% triton, saturated with PBS containing 3% bovine serum albumin (BSA) and incubated for 1 hour with anti-beta III tubulin antibody (T5168, Sigma). […] Finally, nuclei were stained with 4′-6-diamidino-2-phenylindole (DAPI). After rinsing the cells with PBS, the plate was imaged and neurite networks were examined and analyzed using a High-Content Screening platform (CellInsight CXS, Thermo Scientific) with integrated Photometrics high-resolution fluorescent camera, Olympus objective (10×) and HCS Studio Cell Analysis Software. Approximately 2,000 neurons per well were analyzed using a validated cortex neuron outgrowth algorithm that utilizes parameters optimized for analysis of embryonic rat cortical neuron cultures. The HCS Studio Cell Analysis Software output included values for neurite total count (#), neurite total length (μm) and total number of branch points (#) for each of the 6 wells per culture. The evaluation of neurite outgrowth was performed using the average number of neurites per neuron (#), the average of total neurite length per neuron (μm) and the average number of branch points per neuron (#) across 12 wells. Data also was transformed to percent (%) of the average vehicle control value. Results were expressed as mean (±s.e.m.) of the transformed (% of vehicle control) data. Statistical analyses were performed on transformed percent of the average vehicle control data for each measure for each test article using one-way analysis of variance (Anova, StatView). Where applicable, Dunnett's test was used for multiple pairwise comparisons to the negative control (vehicle) condition. […] The level of significance was set at p value less than or equal to 0.05 (*p<0.05).

C57BL/6J mice = assay: Head twitch response (HTR); format: in vivo, mouse; details: 30 minutes after injection
Method: Male C57BL/6J mice at 6-8 weeks of age were purchased from Jackson Laboratories and housed four per cage in a climate and humidity-controlled room in a vivarium at the University of California, San Diego. The room operated on a reverse light cycle (lights on at 1900 h, off at 0700 h) with food and water available ad libitum, except during testing. All testing was performed during 1000 h and 1800 h. After a minimum of 1 week acclimation to the housing facility, mice were anesthetized using a mixture of ketamine (100 mg/kg IP) and xylazine (10 mg/kg IP). Under deep anesthesia, an incision was made in the scalp and a small neodymium magnet (4.57 mm×4.57 mm×2.03 mm) was attached to the cranium using cyanoacrylate and dental cement. After at least a 2-week recovery period, the mouse was removed from the home cage and injected intraperitoneally with the test article or vehicle (0.9% sterile saline). Immediately, the mouse was placed in a glass cylinder surrounded by a magnetometer coil and the head twitch response (HTR) was assessed for 30 minutes (Halberstadt and Geyer, 2013). The output of the coil was recorded using a Powerlab/8SP with LabChart v.7.3.2 (ADInstruments). Coil voltage was amplified, low-pass filtered (2-10 kHz cut-off frequency) to remove interference, digitized and sampled at 20 kHz. Head twitches were identified using a validated technique based on artificial intelligence (Halberstadt, 2020). Events in the recordings were transformed into a visual representation in the time-frequency domain and deep features were extracted using the pretrained convolutional neural network ResNet-50, and the images were subsequently classified using a Support Vector Machine algorithm.
Test articles (R,S-MDA, R(−)-MDA, S-(+)MDA), R,S-MDMA, R(−)-MDMA and S(+)-MDMA) were supplied by the NIDA Drug Supply Program as neat powders. Racemic MDA and MDMA and their enantiomers were dissolved in saline and injected IP at a volume of 5 mL/kg. Each dose was calculated based on the salt form of the compounds. For each treatment condition, six groups of mice (n=5-6/group) were treated with vehicle or the test drug (0.1, 0.3, 1, 3, or 10 mg/kg) and HTR assessed for 30 minutes immediately following injections. To avoid carryover effects, each treatment condition was performed at least seven days apart. Total number of mice used for the experiment was 63.

Adrenergic α2A = target: T1, Adrenergic α2A (Homo sapiens, UniProt P08913); assay: Eurofins Panlabs radioligand binding panel, adrenergic α2A; details: read-out: % inhibition of binding or activity
T1 sequence (P08913 1-465): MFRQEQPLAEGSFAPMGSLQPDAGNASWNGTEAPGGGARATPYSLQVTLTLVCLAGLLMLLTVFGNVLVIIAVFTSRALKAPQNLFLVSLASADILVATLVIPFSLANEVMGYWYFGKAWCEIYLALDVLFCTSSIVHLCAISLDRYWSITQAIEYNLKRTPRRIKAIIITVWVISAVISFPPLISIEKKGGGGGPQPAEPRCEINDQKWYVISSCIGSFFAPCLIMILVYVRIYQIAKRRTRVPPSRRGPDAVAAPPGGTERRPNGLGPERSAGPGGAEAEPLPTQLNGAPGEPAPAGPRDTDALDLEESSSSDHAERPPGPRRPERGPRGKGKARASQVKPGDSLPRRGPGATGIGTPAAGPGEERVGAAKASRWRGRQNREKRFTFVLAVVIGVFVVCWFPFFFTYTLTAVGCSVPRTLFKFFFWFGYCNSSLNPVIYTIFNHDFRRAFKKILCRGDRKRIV
Method: Each of the compounds was evaluated for binding to 87 different targets as part of a panel (Eurofins Panlabs, Taiwan, China). Each compound was tested at a single concentration of […]. The panel included mostly G-protein-couple receptors, ion channels, enzymes, transporters and nuclear receptors, expressed in the central nervous system, cardiovascular, respiratory, gastrointestinal and renal systems. A limited number of targets were of pig, rat or guinea pig origin. Targets were expressed in human recombinant cells lines, rat brain or spinal cord, guinea pig brain or pig heart. Methods were adapted from the scientific literature to maximize reliability and reproducibility. Reference standards were run as an integral part of each assay to ensure validity of the results obtained (available online at the eurofins website for the safety screen 87 panel).

Serotonin 5-HT1A = target: T2, Serotonin 5-HT1A (Homo sapiens, UniProt P08908); assay: Eurofins Panlabs radioligand binding panel, serotonin 5-HT1A; details: 10 uM
T2 sequence (P08908 1-422): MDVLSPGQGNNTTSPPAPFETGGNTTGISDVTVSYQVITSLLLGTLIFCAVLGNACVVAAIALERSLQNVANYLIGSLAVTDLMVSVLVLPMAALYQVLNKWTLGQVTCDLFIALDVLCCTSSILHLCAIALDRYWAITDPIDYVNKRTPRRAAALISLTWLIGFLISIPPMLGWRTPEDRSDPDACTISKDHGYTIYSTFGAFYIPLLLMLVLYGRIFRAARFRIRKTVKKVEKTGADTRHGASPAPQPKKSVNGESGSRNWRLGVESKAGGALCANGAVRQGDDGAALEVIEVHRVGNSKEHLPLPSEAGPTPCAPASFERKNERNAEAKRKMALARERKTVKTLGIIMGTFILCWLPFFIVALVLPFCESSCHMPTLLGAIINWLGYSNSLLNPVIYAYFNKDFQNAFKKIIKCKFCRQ

[1] = Rat plasma pharmacokinetics after cumulative (QID) SC injections; details: for Cmax: metabolite after QID SC parent (R-MDA after R-MDMA, S-MDA after S-MDMA, total MDA after Rac-MDMA)
[2] = male rat plasma, metabolite after QID SC parent, total 10 mg/kg/day
[3] = male rat plasma, metabolite after QID SC parent, total 20 mg/kg/day

Sequence of Serotonin 5-HT2B (P41595 whole entry): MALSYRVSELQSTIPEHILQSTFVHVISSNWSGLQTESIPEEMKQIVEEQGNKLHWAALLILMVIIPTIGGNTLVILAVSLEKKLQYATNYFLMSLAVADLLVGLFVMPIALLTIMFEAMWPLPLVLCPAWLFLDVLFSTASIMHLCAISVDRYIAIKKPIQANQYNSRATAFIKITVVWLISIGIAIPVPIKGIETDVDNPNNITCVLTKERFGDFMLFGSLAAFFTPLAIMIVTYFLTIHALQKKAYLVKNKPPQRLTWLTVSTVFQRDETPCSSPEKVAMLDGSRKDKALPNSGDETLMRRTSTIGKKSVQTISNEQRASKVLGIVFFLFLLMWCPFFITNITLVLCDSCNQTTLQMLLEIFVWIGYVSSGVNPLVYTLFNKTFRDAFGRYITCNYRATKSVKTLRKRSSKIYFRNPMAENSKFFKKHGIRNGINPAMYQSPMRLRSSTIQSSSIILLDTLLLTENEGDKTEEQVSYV

CC(N)Cc1ccc2c(c1)OCO2 (racemic) [Racemic MDA, 3,4-methylenedioxyamphetamine]
inhibition at 10 µM (Serotonin 5-HT2B; read-out: % inhibition of binding or activity): 89%
neurite number (#) (cortical neurons): did not significantly alter
neurite total length (μm) (cortical neurons): did not significantly alter
total number of branch points (#) (cortical neurons): did not significantly alter
head twitch response (HTR) compared to control (vehicle) (C57BL/6J mice; 3 mg/kg IP): increased HTR
inhibition at 10 µM (Adrenergic α2A): 53%

C[C@@H](N)Cc1ccc2c(c1)OCO2 [R-MDA, R(−)-MDA]
% inhibition of binding or activity (Serotonin 5-HT2B): 88%
% inhibition of binding or activity (Serotonin 5-HT1A): 50%
neurite number (#) (cortical neurons): did not significantly alter
neurite total length (μm) (cortical neurons): did not significantly alter
total number of branch points (#) (cortical neurons): did not significantly alter
dose dependence of Cmax and AUC0-27 hr ([1]; dose increase from 10 to 20 mg/kg/day of the dosed test article, QID SC): approximately dose proportional manner
Cmax ([1]; male rat plasma, total 10 mg/kg/day): 0.127 µg/mL
Cmax ([1]; male rat plasma, total 20 mg/kg/day): 0.272 µg/mL
AUC0-27 hr [1, 2]: 0.813 µg·h/mL
AUC0-27 hr/Dose [1, 2]: 81.3 *kg*ng/mL/mg
AUCTlast [1, 2]: 0.716 µg·h/mL
Cmax/Dose [1, 2]: 12.7 kg·ng/mL/mg
Tlast [1, 2]: 11 h
Tmax [1, 2]: 5 h
AUC0-27 hr [1, 3]: 2.41 µg·h/mL
AUC0-27 hr/Dose [1, 3]: 121 *kg*ng/mL/mg
AUCTlast [1, 3]: 1.81 µg·h/mL
Cmax/Dose [1, 3]: 13.6 kg·ng/mL/mg
T1/2 [1, 3]: 2.67 h
Tlast [1, 3]: 11 h
Tmax [1, 3]: 5 h
head twitch response (HTR) compared to control (vehicle) (C57BL/6J mice; 1 mg/kg IP): elicited an increase in HTR
head twitch response (HTR) compared to control (vehicle) (C57BL/6J mice; 3 mg/kg IP): elicited an increase in HTR
head twitch response (HTR) compared to control (vehicle) (C57BL/6J mice; 10 mg/kg IP): elicited an increase in HTR

— patent US20240082212A1, “USE OF MDMA FOR TREATMENT OF STRESS-RELATED DISORDERS” (priority 2022, published 2024)
